From ChEMBL document CHEMBL1153237, “3-(3-Aryloxyaryl)imidazo[1,2-a]pyridine sulfones as liver X receptor agonists” (Bioorg Med Chem Lett, 2010) come the findings set out here.

In general, AUC(0-t) refers to the area under the concentration-time curve up to a stated or last time point. The Cmax is the peak of the concentration-time curve. The Tmax is the time at which the peak concentration occurs. The term solubility denotes the concentration that dissolves in the medium under given conditions. One may read the EC50 as the concentration at which the effect is half-maximal. A lower EC50 goes with greater potency. One may read the IC50 as the concentration that gives 50% inhibition. Low readings indicate greater potency in that assay, high ones weaker potency in that assay. As usually defined, the half-life is how long it takes for the measured level to halve. Lower therefore signals fast loss.

SMILES strings stand for the structures. Converted amounts (≈) assume the structure as drawn.

Series [1] can be described thus: AUC (0 to last) in C57 mouse at 10 mg/kg, po. The class given is ADME, organism-based. The arrangement: dose 10 mg/kg, route oral, time 0 - last. To be noted: plasma.
The nature of series [2]: Cmax in C57 mouse at 10 mg/kg, po. The class given is ADME, organism-based. Details: dose 10 mg/kg, route oral; call rule not given here. To be noted: in vivo.
Series [3] can be described thus: Tmax in C57 mouse at 10 mg/kg, po. The class given is ADME, organism-based. The arrangement: dose 10 mg/kg, route oral. To be noted: in vivo.
The nature of series [4]: Solubility of the compound. The class given is physicochemical.
The target in series [5] is T1, Oxysterols receptor LXR-beta (Homo sapiens, UniProt P55055). To be noted: huh-7.
The target in series [6] is T2, Oxysterols receptor LXR-alpha (Homo sapiens, UniProt Q13133).
T2 sequence (Q13133 whole entry): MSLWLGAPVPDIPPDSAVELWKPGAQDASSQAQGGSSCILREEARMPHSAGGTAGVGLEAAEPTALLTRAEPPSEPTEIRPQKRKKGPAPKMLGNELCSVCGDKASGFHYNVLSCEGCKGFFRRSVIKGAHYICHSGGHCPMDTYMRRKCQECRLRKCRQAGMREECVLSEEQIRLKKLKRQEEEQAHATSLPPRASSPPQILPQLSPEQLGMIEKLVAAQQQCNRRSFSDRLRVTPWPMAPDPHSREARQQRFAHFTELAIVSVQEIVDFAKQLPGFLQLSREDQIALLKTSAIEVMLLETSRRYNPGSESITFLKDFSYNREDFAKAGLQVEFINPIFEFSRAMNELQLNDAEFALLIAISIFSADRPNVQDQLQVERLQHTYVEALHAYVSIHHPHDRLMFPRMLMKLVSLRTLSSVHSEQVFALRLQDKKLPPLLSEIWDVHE

In series [7] the target is T1, Oxysterols receptor LXR-beta.
For series [8], the target named is T2, Oxysterols receptor LXR-alpha. To be noted: huh-7.
Series [9] is described as follows: Tmax in C57 mouse at 2.5 mg/kg, po. The class given is ADME, organism-based. The arrangement: dose 2.5 mg/kg, route oral. To be noted: in vivo.
Series [10] is described as follows: Cmax in C57 mouse at 2.5 mg/kg, po. The class given is ADME, organism-based. Details: dose 2.5 mg/kg, route oral. To be noted: in vivo.
A short description of series [11]: AUC (0 to last) in C57 mouse at 2.5 mg/kg, po. The class given is ADME, organism-based. The arrangement: time 0 - last, dose 2.5 mg/kg, route oral. To be noted: plasma.
Series [12] in a line: Half life in mouse liver microsomes. The class given is ADME, Microsome. (In general: Liver microsomes are a subcellular fraction often used to study metabolism.)
The subject of series [13] is THP-1. Briefly: Induction of ABCA1 mRNA upregulation in human THP1 cells relative to T0901317. The class given is functional.
Series [14] relates to HepG2. Description: Cytotoxic effect as decreased triglyceride level in HepG2 cells after 10 uM treatment. The class given is cell-based. To be noted: human, hepg2, 10 µM.
Series [15] concerns THP-1. Briefly: cells. To be noted: Homo sapiens.
Series [16] can be described thus: Half life in C57 mouse at 10 mg/kg, po. The class given is ADME, organism-based. Details: dose 10 mg/kg, route oral. To be noted: in vivo.
A short description of series [17]: Half life in rat liver microsomes. The class given is ADME, Microsome.
Series [18] concerns HepG2. Briefly: Cytotoxic effect as decreased triglyceride level in HepG2 cells after 3 uM treatment. The class given is cell-based. To be noted: human, hepg2, 3 µM.
A short description of series [19]: Half life in human liver microsomes. The class given is ADME, Microsome.
Series [20] concerns HepG2. Briefly: cells. To be noted: Homo sapiens.
The subject of series [21] is HepG2. Briefly: Increase in cellular triglyceride level in human HepG2 cells relative to T0901317. The class given is functional.

T1 sequence (P55055 whole entry): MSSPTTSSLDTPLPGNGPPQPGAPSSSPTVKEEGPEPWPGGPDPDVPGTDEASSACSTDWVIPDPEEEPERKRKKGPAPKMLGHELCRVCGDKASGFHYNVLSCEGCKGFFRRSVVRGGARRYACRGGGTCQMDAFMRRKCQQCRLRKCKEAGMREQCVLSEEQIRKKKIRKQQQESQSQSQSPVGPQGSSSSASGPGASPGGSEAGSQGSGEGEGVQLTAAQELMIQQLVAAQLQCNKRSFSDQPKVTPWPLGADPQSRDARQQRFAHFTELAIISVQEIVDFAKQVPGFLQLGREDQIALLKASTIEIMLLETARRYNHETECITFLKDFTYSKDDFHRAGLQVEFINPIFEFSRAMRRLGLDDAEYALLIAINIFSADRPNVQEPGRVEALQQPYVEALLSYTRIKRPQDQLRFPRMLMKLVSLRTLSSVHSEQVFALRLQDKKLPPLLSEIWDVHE

`Cc1nc2c(C(F)(F)F)cccc2n1-c1cccc(Oc2cccc(S(C)(=O)=O)c2)c1`: the AUC(0-t) in [1] was 8940 ng·h/mL. Further, in series [2], the Cmax came to 614 ng/mL. For the same compound, the Tmax in [3] came to 120 min. In series [4], this compound yielded a solubility of 214 µg/mL (≈ 479 µM).

As for `CC(C)c1nc2c(C(F)(F)F)cccn2c1-c1ccc(-c2cccc(S(C)(=O)=O)c2)cc1`, the EC50 entry in [5] is “Not Active”.

Consider `CC(C)c1nc2c(C(F)(F)F)cccn2c1-c1ccc(-c2ccc(S(C)(=O)=O)cc2)cc1`, for which the IC50 in series [6] and in series [7] was above 1000 nM each time. For the same compound, the EC50 entry in series [5] and in series [8] was “Not Active” in each case.

As to `Cc1cnc2c(C(F)(F)F)cccc2c1-c1cccc(Oc2cccc(S(C)(=O)=O)c2)c1`, the Tmax in [9] was found to be 120 min. This compound also displayed a Cmax in [10] of 457 ng/mL. This compound also registered an area under the curve AUC(0-t) in [11] of 1690 ng·h/mL. Besides, in [4], the solubility is below 1 µg/mL.

Take `CCS(=O)(=O)c1cccc(Oc2cccc(-c3c(C)nc4c(C(F)(F)F)cccn34)c2)c1`: the half-life in [12] is 30 min; in series [16] it was 366 min; in [17], 30 min; in series [19] it was 21 min. For the same compound, in series [1], the area under the curve AUC(0-t) is 7790 ng·h/mL. The Efficacy with THP-1 [13] is 100%. In addition, the Decreased_triglyceride entry in the series with HepG2 [14] and in the series on HepG2 [18] was “Cytotoxic potential” each time. For the same compound, the concentration for a half-maximal effect (EC50) with THP-1 [15] worked out at 130 nM. For the same compound, the Cmax in series [2] was determined as 1420 ng/mL. Further, the time of peak concentration (Tmax) in series [3] was 60 min. The compound also displayed a solubility in [4] of 68 µg/mL (≈ 148 µM).

Take `Cc1nc2c(C(F)(F)F)cccn2c1-c1cccc(Oc2cccc(S(C)(=O)=O)c2)c1`: the half-life in series [12] is 30 min; in [16], 270 min; in series [17], 30 min; in series [19], 30 min. The compound also returned an AUC(0-t) in series [1] of 4670 ng·h/mL. Further, the Efficacy amounted to 99% with THP-1 [13] and 8% in the series on HepG2 [21]. Besides, the EC50 came out at 72 nM with HepG2 [20] and 125 nM with THP-1 [15]. Also, in series [2], the concentration peaked (Cmax) at 1140 ng/mL. In addition, the Decreased_triglyceride result in the series on HepG2 [18] is reported as “Cytotoxic potential”. The Tmax in series [3] stood at 15 min. The same compound gave a solubility in series [4] above 100 µg/mL.

Regarding `CC(C)c1nc2c(C(F)(F)F)cccn2c1-c1cccc(OCc2ccc(S(C)(=O)=O)cc2)c1`, the IC50 in [6] and in series [7] was above 1000 nM in each case.

Turning to `CCc1nc2c(C(F)(F)F)cccn2c1-c1cccc(Oc2cccc(S(C)(=O)=O)c2)c1`, the half-life came out at 20 min in [12], 30 min in series [17] and 30 min in series [19]. For the same compound, the Efficacy in the series on THP-1 [13] was 65%; in the series on HepG2 [21], 38%. For the same compound, the EC50 was 227 nM in the series with HepG2 [20] and 243 nM in the series with THP-1 [15]. This compound also showed a solubility in [4] of 228 µg/mL (≈ 495 µM).

For the compound `CS(=O)(=O)c1cccc(Oc2cccc(-c3c(Cc4ccccc4)nc4c(C(F)(F)F)cccn34)c2)c1`, the half-life was 2 min in [12], 7 min in series [17] and 19 min in series [19]. Also, the Efficacy worked out at 105% in the series on THP-1 [13] and 81% with HepG2 [21]. For the same compound, the EC50 in the series with HepG2 [20] is 65 nM; with THP-1 [15], 120 nM. The compound further yielded a solubility in [4] of 3 µg/mL (≈ 5.74 µM).

With `CS(=O)(=O)c1cccc(Oc2cccc(-c3c(CN4CCCCC4)nc4c(C(F)(F)F)cccn34)c2)c1`, the values for the half-life in series [12], in series [17] and in series [19] were 2 min, 5 min and 3 min, respectively. For the same compound, the Efficacy in the series with THP-1 [13] is given as 100%; in the series with HepG2 [21], 26%. For the same compound, the EC50 in the series with HepG2 [20] was found to be 128 nM; in the series with THP-1 [15], 44 nM. Further, the solubility in series [4] turned out to be 73 µg/mL (≈ 138 µM).

With `CS(=O)(=O)c1cccc(Oc2cccc(-c3c(CN4CCSC4)nc4c(C(F)(F)F)cccn34)c2)c1`, the values for the half-life in series [12], in series [17] and in series [19] were 3 min, 23 min and 6 min, respectively. Also, the Efficacy in the series on THP-1 [13] is recorded as 98%; with HepG2 [21] it was 36%. The values for the concentration giving a half-maximal response (EC50) in the series on HepG2 [20] and with THP-1 [15] were 42 nM and 10 nM, respectively. The same compound yielded a solubility in series [4] of 1 µg/mL (≈ 1.87 µM).

In the case of `O=S(=O)(c1ccccc1)N(CC(F)(F)F)c1ccc(C(O)(C(F)(F)F)C(F)(F)F)cc1` [T091317], the half-life in [12], in series [17] and in [19] was 30 min throughout. Further, the Efficacy in the series with THP-1 [13] was found to be 100%.
